This is an account of results in US8017611B2, “Pyridine and pyrazine derivatives -083” (AstraZeneca AB, priority 2007, dated 2011).

The first assay addresses T1, recombinant Axl tyrosine kinase (Homo sapiens, UniProt P30530).
T1 construct: encompassing amino acids 473 to 894 of Axl; GST (N); made in house; host or cells: SF126 insect cells
T1 sequence (P30530 473-894): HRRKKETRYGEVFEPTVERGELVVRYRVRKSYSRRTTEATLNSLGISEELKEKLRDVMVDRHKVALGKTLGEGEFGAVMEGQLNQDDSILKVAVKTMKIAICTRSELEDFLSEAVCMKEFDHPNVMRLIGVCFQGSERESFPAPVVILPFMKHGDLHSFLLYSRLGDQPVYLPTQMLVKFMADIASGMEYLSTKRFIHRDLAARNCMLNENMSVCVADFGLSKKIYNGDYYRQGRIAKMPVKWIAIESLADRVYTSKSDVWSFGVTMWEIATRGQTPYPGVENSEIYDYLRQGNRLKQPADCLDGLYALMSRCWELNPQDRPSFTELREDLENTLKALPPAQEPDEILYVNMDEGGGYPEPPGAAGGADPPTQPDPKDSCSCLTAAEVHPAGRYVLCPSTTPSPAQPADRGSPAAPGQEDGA
Briefly: In vitro Axl kinase assay (AlphaScreen), Test (a). The following applies: 1 μM; mean calculated from a larger number of replicates than the first value. The assay is classed as biochemical.
As to `Nc1ncc(-c2ccc(CN3CCOCC3)cc2)cc1-c1nc2ccncc2o1` [Example 11A.1], the “% Axl tyrosine kinase inhibition at 1 μM concentration (second value, †)” value was 99.4%.

Consider `Nc1ncc(-c2ccc(N3CCNCC3)nc2)nc1-c1nc2ccccc2o1` [Example 20.3], for which the “% Axl tyrosine kinase inhibition at 1 μM concentration (second value, †)” value is on record as 98.7%.

Still in this assay, the particulars now being: 1 μM; mean calculated from a larger number of replicates than the first value; read-out: % Axl tyrosine kinase inhibition at 1 μM concentration (second value, †).
As to `CN1CCC(n2cc(-c3cnc(N)c(-c4nc5ccccc5o4)c3)cn2)CC1` [Example 3, 3-(1,3-Benzoxazol-2-yl)-5-[1-(1-methyl-4-piperidyl)pyrazol-4-yl]pyridin-2-amine], the inhibition at 1 µM is 99.8%.

Staying with this assay, now noted: test compound at 1 μM; first value quoted.
Turning to `Nc1ncc(-c2ccc(C(=O)NC3CCNC3)cc2)cc1-c1nc2cccnc2o1` (centres unmarked) [Example 45A.106], the “% Axl tyrosine kinase inhibition at 1 μM concentration” value is given as 98.4%.

Regarding `Nc1ncc(-c2ccc3[nH]ccc3c2)cc1-c1nc2ccccc2o1` [Example 2.29], the “% Axl tyrosine kinase inhibition at 1 μM concentration” value turned out to be 31.3%.

Turning to `Nc1ncc(-c2ccc(C(=O)N3CC(N)C3)cc2)cc1-c1nc2cccnc2o1` [Example 45A.105], the “% Axl tyrosine kinase inhibition at 1 μM concentration” value stood at 98.4%.

Take `CN(C)S(=O)(=O)c1ccc(-c2cnc(N)c(-c3nc4ccccc4o3)n2)cc1` [Example 20.12]: the “% Axl tyrosine kinase inhibition at 1 μM concentration” value turned out to be 92.7%.

Consider `CC(C)N1CCC(CN(C)C(=O)c2ccc(-c3cnc(N)c(-c4nc5cccnc5o4)c3)cc2)C1` (centres unmarked) [Example 45A.42], for which the “% Axl tyrosine kinase inhibition at 1 μM concentration” value is 99.3%.

For `CN(C)CCC(=O)N1CCC(n2cc(-c3cnc(N)c(-c4nc5ncccc5o4)c3)cn2)CC1` [Example 59.6], the “% Axl tyrosine kinase inhibition at 1 μM concentration” value stood at 99.9%.

Consider `CN1CCC(n2cc(-c3cnc(N)c(-c4nc5c(C#N)cccc5o4)c3)cn2)CC1` [Example 41.25], for which the “% Axl tyrosine kinase inhibition at 1 μM concentration” value amounted to 99.8%.

For `CN1CCC(n2cc(-c3cnc(N)c(-c4nc5cnccc5o4)c3)cn2)CC1` [Example 41.1], the “% Axl tyrosine kinase inhibition at 1 μM concentration” value turned out to be 99.8%.

In the case of `Nc1ncc(-c2cccc(CN3CCCC3)c2)cc1-c1nc2ncccc2o1` [Example 10A.7], the “% Axl tyrosine kinase inhibition at 1 μM concentration” value was determined as 95.9%.

As to `Nc1ncc(-c2ccc(OC3CCNC3)cc2)cc1-c1nc2ncccc2o1` (centres unmarked) [Example 43B.27], the “% Axl tyrosine kinase inhibition at 1 μM concentration” value was found to be 98.2%.

In the case of `Nc1ncc(-c2ccc(C(=O)N3CCC4(CCNCC4)CC3)cc2)cc1-c1nc2cccnc2o1` [Example 45A.100], the “% Axl tyrosine kinase inhibition at 1 μM concentration” value is recorded as 95.3%.

Turning to `Nc1ncc(-c2ccc(OCCOC3CNC3)cc2)cc1-c1nc2ncccc2o1` [Example 43B.39], the “% Axl tyrosine kinase inhibition at 1 μM concentration” value stood at 98.2%.

For `CN1CCN(C(=O)c2cccc(-c3cnc(N)c(-c4nc5cccnc5o4)c3)c2)CC1` [Example 9A.18], the “% Axl tyrosine kinase inhibition at 1 μM concentration” value came to 80.8%.

Take `N#Cc1cccc2oc(-c3cc(-c4cnn(C5CCNCC5)c4)cnc3N)nc12` [Example 38A.3]: the “% Axl tyrosine kinase inhibition at 1 μM concentration” value amounted to 99.9%.

Take `Nc1ncc(-c2ccc(C(=O)NC[C@@H]3CCCN3)cc2)cc1-c1nc2cccnc2o1` [Example 45A.90]: the “% Axl tyrosine kinase inhibition at 1 μM concentration” value amounted to 98.9%.

Take `CNC(=O)c1cccc(-c2cnc(N)c(-c3nc4ccccc4o3)c2)c1` [Example 2.17]: the “% Axl tyrosine kinase inhibition at 1 μM concentration” value came out at 68.9%.

`CC(=O)N1CCC(n2cc(-c3cnc(N)c(-c4nc5cccnc5o4)c3)cn2)CC1` [Example 57.4]: the “% Axl tyrosine kinase inhibition at 1 μM concentration” value came out at 99.3%.

Consider `COc1cc(-c2cnc(N)c(-c3nc4ncccc4o3)c2)ccc1OC1CC2CCC(C1)N2C` (centres unmarked) [Example 43C.19], for which the “% Axl tyrosine kinase inhibition at 1 μM concentration” value stood at 99.7%.

For `CN(C)S(=O)(=O)c1ccc(-c2cnc(N)c(-c3nc4ccccc4o3)c2)cc1` [Example 2.28], the “% Axl tyrosine kinase inhibition at 1 μM concentration” value was 85.1%.

Turning to `Nc1ncc(-c2ccc(CN3CCOCC3)cc2)cc1-c1nc2ccncc2o1` [Example 11A.1], the “% Axl tyrosine kinase inhibition at 1 μM concentration” value is reported as 99.6%.

With `Nc1ncc(-c2ccc(C(=O)NCCN3CC[C@H](F)C3)cc2)cc1-c1nc2cccnc2o1` [Example 45A.38], the “% Axl tyrosine kinase inhibition at 1 μM concentration” value was found to be 98.4%.

On to `Nc1ncc(-c2ccc(N3CCNCC3)nc2)nc1-c1nc2ccccc2o1` [Example 20.3], for which the “% Axl tyrosine kinase inhibition at 1 μM concentration” value was 99.3%.

Regarding `CN(C)CCNC(=O)c1cccc(-c2cnc(N)c(-c3nc4ccccc4o3)c2)c1` [Example 2.8], the “% Axl tyrosine kinase inhibition at 1 μM concentration” value came out at 96.5%.

In the case of `COCCOc1ccc(-c2cnc(N)c(-c3nc4ccccc4o3)c2)cc1` [Example 2.9], the “% Axl tyrosine kinase inhibition at 1 μM concentration” value is given as 40.3%.

Consider `Nc1ncc(-c2ccc(C(=O)N3CCN4CCCC4C3)cc2)cc1-c1nc2cccnc2o1` (centres unmarked) [Example 45A.74], for which the “% Axl tyrosine kinase inhibition at 1 μM concentration” value worked out at 99.9%.

`CN(C)[C@H]1CCN(C(=O)c2ccc(-c3cnc(N)c(-c4nc5cccnc5o4)c3)cc2)C1` [Example 45A.77]: the “% Axl tyrosine kinase inhibition at 1 μM concentration” value amounted to 96.1%.

As to `CN1CCN(S(=O)(=O)CCCOc2ccc(-c3cnc(N)c(-c4nc5ncccc5o4)c3)cc2)CC1` [Example 43B.24], the “% Axl tyrosine kinase inhibition at 1 μM concentration” value is given as 98.2%.

For the compound `COCCN1CCC(NC(=O)c2ccc(-c3cnc(N)c(-c4nc5cccnc5o4)c3)cc2)CC1` [Example 45A.10], the “% Axl tyrosine kinase inhibition at 1 μM concentration” value is 97.5%.

For the compound `CN(C)CCCn1cc(-c2cnc(N)c(-c3nc4ccccc4o3)c2)cn1` [Example 27.4], the “% Axl tyrosine kinase inhibition at 1 μM concentration” value stood at 99.2%.

Turning to `COCc1ccc(-c2cnc(N)c(-c3nc4ccccc4o3)c2)cc1` [Example 2.37], the “% Axl tyrosine kinase inhibition at 1 μM concentration” value was determined as 91.9%.

As to `Nc1ncc(-c2ccc(C(=O)N3CC[C@H](N4CCCC4)C3)cc2)cc1-c1nc2cccnc2o1` [Example 45A.22], the “% Axl tyrosine kinase inhibition at 1 μM concentration” value worked out at 97.1%.

For `Nc1ncc(-c2cccc(N3CCCC3)c2)cc1-c1nc2ccccc2o1` [Example 2.32], the “% Axl tyrosine kinase inhibition at 1 μM concentration” value was 22.4%.

Regarding `Nc1ncc(-c2ccc(CN3CCOCC3)cc2)cc1-c1nc2cccnc2o1` [Example 9A.21], the “% Axl tyrosine kinase inhibition at 1 μM concentration” value was found to be 95.6%.

Turning to `Nc1ncc(-c2ccc(N3CCNCC3)cc2)nc1-c1nc2ccccc2o1` [Example 20.11], the “% Axl tyrosine kinase inhibition at 1 μM concentration” value is given as 100.0%.

Turning to `Nc1ncc(-c2ccc(C(=O)N3CCC[C@H](N)C3)cc2)cc1-c1nc2cccnc2o1` [Example 45A.88], the “% Axl tyrosine kinase inhibition at 1 μM concentration” value was 99.8%.

As for `Nc1ncc(-c2ccc(OC3CCCNC3)cc2)cc1-c1nc2ncccc2o1` (centres unmarked) [Example 43B.30], the “% Axl tyrosine kinase inhibition at 1 μM concentration” value turned out to be 98.9%.

Regarding `Nc1ncc(-c2cccc(S(=O)(=O)NC3CC3)c2)cc1-c1nc2ncccc2o1` [Example 10A.10], the “% Axl tyrosine kinase inhibition at 1 μM concentration” value is on record as 90.0%.

As for `Nc1ncc(-c2ccc(C(=O)NCCCn3ccnc3)cc2)cc1-c1nc2cccnc2o1` [Example 45A.53], the “% Axl tyrosine kinase inhibition at 1 μM concentration” value is on record as 98.8%.

Consider `CN1CCN(CCCOc2ccc(-c3cnc(N)c(-c4nc5ncccc5o4)c3)cc2)CC1` [Example 43B.14], for which the “% Axl tyrosine kinase inhibition at 1 μM concentration” value turned out to be 95.1%.

In the case of `CS(=O)(=O)Oc1cccc(-c2cnc(N)c(-c3nc4ccccc4o3)n2)c1` [Example 20.18], the “% Axl tyrosine kinase inhibition at 1 μM concentration” value is recorded as 98.1%.

On to `NCc1cccc(-c2cnc(N)c(-c3nc4ccccc4o3)c2)c1` [Example 2.4], for which the “% Axl tyrosine kinase inhibition at 1 μM concentration” value worked out at 99.1%.

Staying with this assay, now noted: test compound at 1 μM; first value quoted; read-out: % Axl tyrosine kinase inhibition at 1 μM concentration.
`CC(C)(C)OC(=O)N1CCC(n2cc(-c3cnc(N)c(-c4nc5ccccc5o4)c3)cn2)CC1` [Example 2.2, tert-butyl 4-[4-[6-amino-5-(1,3-benzoxazol-2-yl)-3-pyridyl]pyrazol-1-yl]piperidine-1-carboxylate]: the inhibition at 1 µM was 99.5%.

Regarding `CC(O)c1nn(C2CCNCC2)cc1-c1cnc(N)c(-c2nc3ccccc3o2)c1` (centres unmarked) [Example 60, 1-[4-[6-amino-5-(1,3-benzoxazol-2-yl)-3-pyridyl]-1-(4-piperidyl)pyrazol-3-yl]ethanol], the inhibition at 1 µM worked out at 99.8%.

Regarding `Nc1ncc(-c2ccc(N3CCNCC3)nc2)cc1-c1nc2ccccc2o1` [Example 2.19, 3-(1,3-Benzoxazol-2-yl)-5-[6-(piperazin-1-yl)-3-pyridyl]pyridin-2-amine], the inhibition at 1 µM is 99.8%.

Regarding `Nc1ncc(-c2cnn(CCO)c2)cc1-c1nc2ccccc2o1` [Example 28, 2-[4-[6-amino-5-(1,3-benzoxazol-2-yl)-3-pyridyl]pyrazol-1-yl]ethanol], the inhibition at 1 µM came out at 99.3%.

For `CN1CCC(n2cc(-c3cnc(N)c(-c4nc5ccccc5o4)c3)cn2)CC1` [Example 3, 3-(1,3-Benzoxazol-2-yl)-5-[1-(1-methyl-4-piperidyl)pyrazol-4-yl]pyridin-2-amine], the inhibition at 1 µM is 100%.

As for `Nc1ncc(-c2cnn(C3CCNCC3)c2CO)cc1-c1nc2ccccc2o1` [Example 61, [4-[6-amino-5-(1,3-benzoxazol-2-yl)-3-pyridyl]-2-(4-piperidyl)pyrazol-3-yl]methanol], the inhibition at 1 µM stood at 99.9%.

With `CN1CCC(n2cc(-c3cnc(N)c(-c4nc5ccccc5s4)c3)cn2)CC1` [Example 16, 3-(1,3-Benzothiazol-2-yl)-5-[1-(1-methyl-4-piperidyl)pyrazol-4-yl]pyridin-2-amine], the inhibition at 1 µM amounted to 99.8%.

`Nc1ncc(-c2cnn(C3CCCCO3)c2)cc1-c1nc2ccccc2o1` (centres unmarked) [Example 2.55, 3-(1,3-benzoxazol-2-yl)-5-(1-tetrahydropyran-2-ylpyrazol-4-yl)pyridin-2-amine]: the inhibition at 1 µM was 99.2%.

In the case of `COCc1nn(C2CCN(C(=O)CN(C)C)CC2)cc1-c1cnc(N)c(-c2nc3ccccc3o2)c1` [Example 71, 1-[4-[4-[6-amino-5-(1,3-benzoxazol-2-yl)-3-pyridyl]-3-(methoxymethyl)pyrazol-1-yl]-1-piperidyl]-2-dimethylaminoethanone], the inhibition at 1 µM came to 100%.
